Reference: patent publication US10688093B2, “Methods, compositions, and uses of novel Fyn kinase inhibitors” (priority 2015, dated 2020)

The compounds below were run against full-length recombinant human FYN A (Homo sapiens (Human), UniProt P06241) (assay: ADP-Glo Kinase Assay of FYN kinase inhibition). Conditions: primary screen, initial compounds.
Type: biochemical
In short: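 GST-tagged full-length FYN A (baculovirus, Sf9) at 3 pg preincubated 30 min RT with compound (10-point 3-fold series from 10 μM) in Tris pH 7.5/MgCl2 buffer. 12-mer tyrosine peptide plus 12.5 pmol ATP added, 90 min RT; ADP measured by ADP-Glo luminescence, IC50 from dose-response.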

Chain of full-length recombinant human FYN A (P06241 whole entry): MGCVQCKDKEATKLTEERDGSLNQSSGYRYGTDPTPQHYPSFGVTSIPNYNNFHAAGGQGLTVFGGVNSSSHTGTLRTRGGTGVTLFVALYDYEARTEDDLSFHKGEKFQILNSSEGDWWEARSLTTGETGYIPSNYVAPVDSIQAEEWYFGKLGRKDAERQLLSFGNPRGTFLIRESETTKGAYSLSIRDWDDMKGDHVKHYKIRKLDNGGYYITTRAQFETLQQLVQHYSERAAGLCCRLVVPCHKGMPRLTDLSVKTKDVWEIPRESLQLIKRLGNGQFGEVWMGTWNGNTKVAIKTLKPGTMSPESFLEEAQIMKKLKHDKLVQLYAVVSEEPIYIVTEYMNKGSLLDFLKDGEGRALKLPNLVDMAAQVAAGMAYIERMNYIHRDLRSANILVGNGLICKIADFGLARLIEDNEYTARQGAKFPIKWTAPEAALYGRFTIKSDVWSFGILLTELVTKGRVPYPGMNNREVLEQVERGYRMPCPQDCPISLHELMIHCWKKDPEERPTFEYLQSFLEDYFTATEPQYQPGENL

SMILES | IC50 [nM]
c1csc(-c2cn3c(-c4ccncc4)cnc3cn2)c1 [Compound 198, 3-(4-pyridyl)-6-(2-thienyl)imidazo [1,2-a]pyrazine] | 5690
Oc1ccc(-c2cn3c(-c4ccsc4)cnc3cn2)cc1 [Compound 199, 4-[3-(3-thienyl)imidazo [1,2-a]pyrazin-6-yl]phenol] | 2700
c1csc(-c2cn3c(-c4ccsc4)cnc3cn2)c1 [Compound 200, 6-(2-thienyl)-3-(3-thienyl)imidazo [1,2-a]pyrazine] | 2250
CC(=O)Nc1cccc(-c2cn3c(-c4ccsc4)cnc3cn2)c1 [Compound 201, N-[3-[3-(3-thienyl)imidazo [1,2-a]pyrazin-6-yl]phenyl] acetamide] | 2330
CS(=O)(=O)Nc1cccc(-c2cn3c(-c4ccsc4)cnc3cn2)c1 [Compound 202, N-[3-[3-(3-thienyl)imidazo [1,2-a]pyrazin-6-yl]phenyl] methane-sulfonamide] | 3320
c1coc(-c2cn3c(-c4ccsc4)cnc3cn2)c1 [Compound 203, 6-(2-furyl)-3-(3-thienyl)imidazo [1,2-a]pyrazine] | 6250
Oc1cccc(-c2cnc3cnc(-c4ccccc4)cn23)c1 [Compound 204, 3-(6-phenylimidazo [1,2-a]pyrazin-3-yl)phenol] | 6550
NC(=O)c1cccc(-c2cn3c(-c4cccc(O)c4)cnc3cn2)c1 [Compound 205, 3-[3-(3-hydroxyphenyl)imidazo[1,2-a]pyrazin-6-yl]benzamide] | 1580
Oc1ccc(-c2cnc3cnc(-c4cccnc4)cn23)cc1 [Compound 206, 4-[6-(3-pyridyl)imidazo [1,2-a]pyrazin-3-yl]phenol] | 2730
OCc1ccc(-c2cn3c(-c4ccc(Oc5ccccc5)cc4)cnc3cn2)cc1 [Compound 207] | 4720
Oc1ccc(-c2cnc3cnc(-c4ccc(Cl)cc4)cn23)cc1 [Compound 208, 4-[6-(4-chlorophenyl)imidazo[1,2-a]pyrazin-3-yl]phenol] | 6380
Oc1cccc(-c2cnc3cnc(-c4cccs4)cn23)c1 [Compound 209, 3-[6-(2-thienyl)imidazo [1,2-a]pyrazin-3-yl]phenol] | 2780
Cn1cc(-c2cn3c(-c4ccc(Oc5ccccc5)cc4)cnc3cn2)cn1 [Compound 210, 6-(1-methylpyrazol-4-yl)-3-(4-phenoxyphenyl) imidazo[1,2-a]pyrazine] | 1930
Oc1cccc(-c2cnc3cnc(-c4ccco4)cn23)c1 [Compound 211, 3-[6-(2-furyl)imidazo [1,2-a]pyrazin-3-yl]phenol] | 6110
COc1ccc(-c2cn3c(-c4ccc(O)cc4)cnc3cn2)cn1 [Compound 212, 4-[6-(6-methoxy-3-pyridyl)imidazo [1,2-a]pyrazin-3-yl]phenol] | 1980
OCc1ccc(-c2cn3c(-c4cccc(O)c4)cnc3cn2)cc1 [Compound 213, 3-[6-[4-(hydroxymethyl)phenyl]imidazo [1,2-a]pyrazin-3-yl]phenol] | 3360
Cn1cc(-c2cn3c(-c4cccc(O)c4)cnc3cn2)cn1 [Compound 214, 3-[6-(1-methylpyrazol-4-yl)imidazo[1,2-a]pyrazin-3-yl]phenol] | 2780
Cn1cc(-c2cn3c(-c4ccc(O)cc4)cnc3cn2)cn1 [Compound 215, 4-[6-(1-methylpyrazol-4-yl)imidazo[1,2-a]pyrazin-3-yl]phenol] | 1590
CN1CCN(c2ccc(-c3cn4c(-c5ccc(Oc6ccccc6)cc5)cnc4cn3)cn2)CC1 [Compound 216, 6-[6-(4-methylpiperazin-1-yl)-3-pyridyl]-3-(4-phenoxyphenyl) imidazo[1,2-a]pyrazine] | 2130
O=C(NCCO)c1cccc(-c2cn3c(-c4ccc(Oc5ccccc5)cc4)cnc3cn2)c1 [Compound 217, N-(2-hydroxyethyl)-3-[3-(4-phenoxyphenyl)imidazo[1,2-a]pyrazin-6-yl]benzamide] | 1480
CN(C)CCNC(=O)c1ccc(-c2cn3c(-c4ccc(Oc5ccccc5)cc4)cnc3cn2)cc1 [Compound 218, N-(2-dimethylamino-ethyl)-4-[3-(4-phenoxyphenyl)imidazo[1,2-a]pyrazin-6-yl]benzamide] | 165

SMILES | IC50 [nM]
O=C(NCCO)c1ccc(-c2cn3c(-c4ccc(Oc5ccccc5)cc4)cnc3cn2)cc1 [Compound 219, N-(2-hydroxyethyl)-4-[3-(4-phenoxyphenyl)imidazo[1,2-a]pyrazin-6-yl]benzamide] | 623
CN(C)CCCNC(=O)c1ccc(-c2cn3c(-c4cccc(Cl)c4)cnc3cn2)cc1 [Compound 220, 4-[3-(3-chlorophenyl)imidazo[1,2-a]pyrazin-6-yl]-N-[3-(dimethylamino)propyl]benzamide] | 8430
Nc1ccc(-c2cn3c(-c4ccc(Oc5ccccc5)cc4)cnc3cn2)cn1 [Compound 221, 5-[3-(4-phenoxyphenyl)imidazo[1,2-a]pyrazin-6-yl]pyridin-2-amine] | 1720
CN(C)CCCNC(=O)c1ccc(-c2cn3c(-c4ccsc4)cnc3cn2)cc1 [Compound 222, N-[3-(dimethylamino)propyl]-4-[3-(3-thienyl)imidazo [1,2-a]pyrazin-6-yl]benzamide] | 3870
COc1ccc(-c2cnc3cnc(-c4ccc(N5CCN(C)CC5)cc4)cn23)cc1 [Compound 223, 3-(4-methoxyphenyl)-6-[4-(4-methyl-piperazin-1-yl)phenyl] imidazo[1,2-a]pyrazine] | 5250
O=C(NCCO)c1cccc(-c2cn3c(-c4ccsc4)cnc3cn2)c1 [Compound 224, N-(2-hydroxyethyl)-3-[3-(3-thienyl)imidazo [1,2-a]pyrazin-6-yl]benzamide] | 3670
CN1CCN(c2ccc(-c3cn4c(-c5ccsc5)cnc4cn3)cn2)CC1 [Compound 225, 6-[6-(4-methylpiperazin-1-yl)-3-pyridyl]-3-(3-thienyl)imidazo [1,2-a]pyrazine] | 7050
Nc1ccc(-c2cn3c(-c4ccsc4)cnc3cn2)cn1 [Compound 226, 5-[3-(3-thienyl)imidazo [1,2-a]pyrazin-6-yl]pyridin-2-amine] | 2460
c1cc(-c2cn3c(-c4ccsc4)cnc3cn2)cs1 [Compound 227, 3,6-bis(3-thienyl)imidazo [1,2-a]pyrazine] | 8470
CN(C)CCNC(=O)c1ccc(-c2cn3c(-c4ccsc4)cnc3cn2)cc1 [Compound 228, N-(2-dimethylamino-ethyl)-4-[3-(3-thienyl)imidazo [1,2-a]pyrazin-6-yl]benzamide] | 1900
Cn1cc(-c2cnc3cnc(-c4ccccc4Oc4ccccc4)cn23)cn1 [Compound 229, 3-(1-methylpyrazol-4-yl)-6-(2-phenoxyphenyl) imidazo[1,2-a]pyrazine] | 1820
CN1CCN(c2ccc(-c3cn4c(-c5cccc(O)c5)cnc4cn3)cn2)CC1 [Compound 230, 3-[6-[6-(4-methylpiperazin-1-yl)-3-pyridyl]imidazo [1,2-a]pyrazin-3-yl]phenol] | 3140
CN(C)CCCOc1ccc(-c2cn3c(-c4ccc5c(c4)OCO5)cnc3cn2)cn1 [Compound 231, 3-[[5-[3-(1,3-benzodioxol-5-yl)imidazo[1,2-a]pyrazin-6-yl]-2-pyridyl]oxy]-N,N-dimethyl-propan-1-amine] | 9850
CCOc1cccc(-c2cn3c(-c4cccc(O)c4)cnc3cn2)c1 [Compound 232, 3-[6-(3-ethoxyphenyl)imidazo[1,2-a]pyrazin-3-yl]phenol] | 6690
CN1CCN(c2ccc(-c3cn4c(-c5ccc6c(c5)OCO6)cnc4cn3)cc2)CC1 [Compound 233, 3-(1,3-benzodioxol-5-yl)-6-[4-(4-methylpiperazin-1-yl)phenyl] imidazo[1,2-a]pyrazine] | 7930
Oc1cccc(-c2cnc3cnc(-c4ccsc4)cn23)c1 [Compound 234, 3-[6-(3-thienyl)imidazo [1,2-a]pyrazin-3-yl]phenol] | 2520
CN1CCN(c2ccc(-c3cn4c(-c5cccc(O)c5)cnc4cn3)cc2)CC1 [Compound 235, 3-[6-[4-(4-methyl-piperazin-1-yl)phenyl]imidazo [1,2-a]pyrazin-3-yl]phenol] | 1590
CN(C)CCCNC(=O)c1ccc(-c2cn3c(-c4ccc(Cl)cc4)cnc3cn2)cc1 [Compound 236, 4-[3-(4-chlorophenyl)imidazo[1,2-a]pyrazin-6-yl]-N-[3-(dimethylamino)propyl]benzamide] | 4900
CN(C)CCNC(=O)c1ccc(-c2cn3c(-c4ccc5c(c4)OCO5)cnc3cn2)cc1 [Compound 237, 4-[3-(1,3-benzodioxol-5-yl)imidazo[1,2-a]pyrazin-6-yl]-N-(2-dimethyl-aminoethyl) benzamide] | 3800
Nc1ccc(-c2cn3c(-c4cccc(O)c4)cnc3cn2)cn1 [Compound 238, 3-[6-(6-amino-3-pyridyl)imidazo [1,2-a]pyrazin-3-yl]phenol] | 2890

Same assay, conditions: secondary screen, re-synthesized and expanded compounds

SMILES | IC50 [nM]
OCc1cccc(-c2ccc3ncc(-c4cccc(CO)c4)n3n2)c1 [BF000817188, [3-[3-[3-(hydroxy-methyl)-phenyl]-imidazo[1,2-b]pyridazin-6-yl]phenyl]-methanol] | 828
COc1ccc(-c2cnc3sc(NCC4CCOCC4)nn23)cc1OC [BF000817208, 5-(3,4-dimethoxy-phenyl)-N-(tetra-hydropyran-4-ylmethyl)-imidazo[2,1-b][1,3,4]-thiadiazol-2-amine] | 1030
CC(=O)Nc1cccc(-c2cnc3ccc(-c4cccc(CO)c4)nn23)c1 [BF000817329, N-[3-[6-[3-(hydroxy-methyl)-phenyl]-imidazo[1,2-b]pyridazin-3-yl]phenyl]-acetamide] | 435
COc1cc(-c2cc(-c3ccc(N4CCOCC4)cc3)cnc2N)ccc1O [BF000817413, 4-[2-amino-5-(4-morpholino-phenyl)-3-pyridyl]-2-methoxy-phenol] | 212
COc1ccc(-c2cnc(N)c(-c3ccc(N4CCN(C)CC4)cc3)c2)cc1O [BF000817418, 5-[6-amino-5-[4-(4-methyl-piperazin-1-yl)phenyl]-3-pyridyl]-2-methoxy-phenol] | 9650
